Measurements reported in patent US20200038418A1, “METHODS OF TREATING AUTISM SPECTRUM DISORDER USING AMINOSTEROL COMPOSITIONS” (Enterin, Inc., priority 2018, published 2020).

How the values were obtained:
[1] = single and repeat intravenous administration, alone or in combination; cited from earlier work
[2] = tested on: IPANs (intrinsic primary afferent neuron); assay: Perfusion of isolated segment of bowel from the PD mouse model; conditions: perfusion through the lumen of isolated bowel segment from PD mouse model
[3] = systemic administration, mice; cited from earlier work
[4] = intravenous administration, prior studies; cited from earlier work
[5] = tested on: mice with constipation due to overexpression of human αS; assay: Gastrointestinal motility in mouse models of PD; format: in vivo

Structure (SMILES)	dose well tolerated [1]	effect on IPANs and peristaltic contractions [2]	clearance and excretion [3]	gastrointestinal motility [4]	gastro-intestinal motility ([5]; orally administered, mice with constipation due to overexpression of human αS)	effect on gastrointestinal dysmotility ([5]; several mouse models of PD)
CC(C)[C@@H](CC[C@@H](C)[C@H]1CC[C@H]2[C@@H]3[C@H](O)C[C@H]4C[C@@H](NCCCNCCCCN)CC[C@]4(C)[C@H]3CC[C@]12C)OS(=O)(=O)O.C[C@H](O)C(=O)O.C[C@H](O)C(=O)O [squalamine dilactate salt]	at least 300 mg/m^2					
CC(C)[C@@H](CC[C@@H](C)[C@H]1CC[C@H]2[C@@H]3[C@H](O)C[C@H]4C[C@@H](NCCCNCCCCN)CC[C@]4(C)[C@H]3CC[C@]12C)OS(=O)(=O)O [squalamine]		excitation of IPANs	cleared by the liver and excreted as the intact molecule	not associated with increased gastrointestinal motility	stimulates gastro-intestinal motility	reverse gastrointestinal dysmotility
